Measured values reported in US8883782B2, “Spiro-tetracyclic ring compounds as beta-secretase modulators and methods of use” (Amgen Inc., priority 2010, dated 2014).

Tests used:
[1] = biological target: Beta Secretase enzyme (BACE) (Homo sapiens, UniProt P56817); assay: In vitro enzymatic BACE FRET (fluorescence resonance energy transfer) assay; type: biochemical; conditions: average IC50, enzyme assay; read-out: BACE 1 FRET assay
Method in brief: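 Fluorescence read after Tris quench to neutral pH. Reaction: 50 nM fluorophore/quencher peptide substrate, 1 h, in 0.05 M acetate pH 4.2, 10% DMSO final, 100 uM genapol.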

[2] = tested on: Aβ40 in conditioned medium of cells stably expressing Amyloid Precursor Protein (APP); assay: In vitro BACE cell-based assay (Aβ40 in conditioned medium, sandwich ELISA); conditions: Homo sapiens, HEK293, average IC50, HEK cells; read-out: HEK cell assay
Method in brief: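 Step two: 10-point compound titration added, starting 100 μM or 10 μM, 0.1% DMSO. Step three: medium Aβ40 measured by ELISA, capture 3 h and detection 2 h at 4° C, TRF read.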

Sequence of Beta Secretase enzyme (BACE) (P56817 46-501, species assumed): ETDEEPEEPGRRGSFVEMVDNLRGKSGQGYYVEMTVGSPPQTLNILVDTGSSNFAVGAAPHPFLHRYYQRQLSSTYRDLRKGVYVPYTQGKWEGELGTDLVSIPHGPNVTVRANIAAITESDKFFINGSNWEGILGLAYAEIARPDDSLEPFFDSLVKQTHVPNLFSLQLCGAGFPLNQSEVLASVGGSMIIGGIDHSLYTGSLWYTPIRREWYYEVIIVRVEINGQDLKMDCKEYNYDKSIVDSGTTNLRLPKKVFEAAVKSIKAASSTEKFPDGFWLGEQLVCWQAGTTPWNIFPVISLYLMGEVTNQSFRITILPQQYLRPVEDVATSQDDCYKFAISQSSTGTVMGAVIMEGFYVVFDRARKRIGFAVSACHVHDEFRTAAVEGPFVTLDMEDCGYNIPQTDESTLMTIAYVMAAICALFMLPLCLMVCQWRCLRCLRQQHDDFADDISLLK

SMILES | IC50 [1] [nM] | IC50 [2] [nM]
NC1=N[C@@]2(CO1)c1cc(-c3cccc(Cl)c3)ccc1Oc1cnc(-c3ccc(F)c(F)c3)cc12 [Example 550, (5S)-7-(3-chlorophenyl)-3-(3,4-difluorophenyl)spiro[chromeno[2,3-c]pyridine-5,4′-[1,3]oxazol]-2′-amine] | 0.5 | 127
Cc1cc(-c2ccc3c(c2)[C@@]2(COC(N)=N2)c2cc(C4=CCOCC4)ncc2O3)ccc1F [Example 551, (5S)-3-(3,6-dihydro-2H-pyran-4-yl)-7-(4-fluoro-3-methylphenyl)spiro[chromeno[2,3-c]pyridine-5,4′-[1,3]oxazol]-2′-amine] | 3.4 | 80.7
CC1(COc2cc(F)c3c(c2)[C@]2(COC(N)=N2)c2cc(-c4cncc(C#N)c4)ccc2O3)COC1 [Example 552, 5-((4S)-2-amino-5′-fluoro-7′-((3-methyl-3-oxetanyl)methoxy)spiro[1,3-oxazole-4,9′-xanthen]-2′-yl)-3-pyridinecarbonitrile] | 0.9 | 3.1
N#Cc1cncc(-c2ccc3c(c2)[C@@]2(COC(N)=N2)c2cc(OCC4CCOCC4)cc(F)c2O3)c1 [Example 553, 5-((4S)-2-amino-5′-fluoro-7′-(tetrahydro-2H-pyran-4-ylmethoxy)spiro[1,3-oxazole-4,9′-xanthen]-2′-yl)-3-pyridinecarbonitrile] | 2.4 | 13.2
Cn1cc(-c2cc(F)c3c(c2)[C@]2(COC(N)=N2)c2cc(-c4cncc(C#N)c4)ccc2O3)cn1 [Example 554, 5-((4S)-2-amino-5′-fluoro-7′-(1-methyl-1H-pyrazol-4-yl)spiro[1,3-oxazole-4,9′-xanthen]-2′-yl)-3-pyridinecarbonitrile] | 1.6 | 6.3
COc1cc(F)c2c(c1)[C@@]1(COC(N)=N1)c1cc(-c3cncnc3)c(F)cc1O2 [Example 555, (4R)-3′,5′-difluoro-7′-methoxy-2′-(5-pyrimidinyl)spiro[1,3-oxazole-4,9′-xanthen]-2-amine] | 290 | 1700
COc1cc(F)c2c(c1)[C@]1(COC(N)=N1)c1cc(-c3cncnc3)c(F)cc1O2 [Example 556, (4S)-3′,5′-difluoro-7′-methoxy-2′-(5-pyrimidinyl)spiro[1,3-oxazole-4,9′-xanthen]-2-amine] | 8.9 | 146
N#Cc1cncc(-c2ccc3c(c2)[C@@]2(COC(N)=N2)c2cc(C4=CCOCC4)cc(F)c2O3)c1 [Example 557, 5-((4S)-2-amino-7′-(3,6-dihydro-2H-pyran-4-yl)-5′-fluorospiro[1,3-oxazole-4,9′-xanthen]-2′-yl)-3-pyridinecarbonitrile] | 0.7 | 3.7
N#Cc1cncc(-c2ccc3c(c2)[C@@]2(COC(N)=N2)c2cc(N4CCOCC4)cc(F)c2O3)c1 [Example 558, 5-((4S)-2-amino-5′-fluoro-7′-(4-morpholinyl)spiro[1,3-oxazole-4,9′-xanthen]-2′-yl)-3-pyridinecarbonitrile] | 1.7 | 5.7
NC1=N[C@@]2(CO1)c1cc(-c3ccccc3)ccc1Oc1c(F)cc(-c3cccnn3)cc12 [Example 559, (4S)-4′-fluoro-7′-phenyl-2′-(3-pyridazinyl)spiro[1,3-oxazole-4,9′-xanthen]-2-amine] | 12.2 | 151
C[C@@H]1CN(c2cc(F)c3c(c2)[C@]2(COC(N)=N2)c2cc(-c4cncc(C#N)c4)ccc2O3)C[C@H](C)O1 [Example 560, 5-((4S)-2-amino-7′-((2R,6S)-2,6-dimethyl-4-morpholinyl)-5′-fluorospiro[1,3-oxazole-4,9′-xanthen]-2′-yl)-3-pyridinecarbonitrile] | 2.8 | 14.2
CC1(/C=C/c2cc(F)c3c(c2)[C@]2(COC(N)=N2)c2cc(-c4cccnc4F)ccc2O3)COC1 [Example 561, (4S)-4′-fluoro-7′-(2-fluoro-3-pyridinyl)-2′-((E)-2-(3-methyl-3-oxetanyl)ethenyl)spiro[1,3-oxazole-4,9′-xanthen]-2-amine] | 2 | 3.7
CC1(COc2cc(F)c3c(c2)[C@]2(COC(N)=N2)c2cc(-c4cccc(C#N)c4)ccc2O3)COC1 [Example 562, 3-((4S)-2-amino-5′-fluoro-7′-((3-methyl-3-oxetanyl)methoxy)spiro[1,3-oxazole-4,9′-xanthen]-2′-yl)benzonitrile] | 2 | 5.8
Cn1cc(-c2cc(F)c3c(c2)[C@]2(COC(N)=N2)c2cc(-c4cccc(C#N)c4)ccc2O3)cn1 [Example 563, 3-((4S)-2-amino-5′-fluoro-7′-(1-methyl-1H-pyrazol-4-yl)spiro[1,3-oxazole-4,9′-xanthen]-2′-yl)benzonitrile] | 1.3 | 12.4
N#Cc1cccc(-c2ccc3c(c2)[C@@]2(COC(N)=N2)c2cc(N4CCOCC4)cc(F)c2O3)c1 [Example 564, 3-((4S)-2-amino-5′-fluoro-7′-(4-morpholinyl)spiro[1,3-oxazole-4,9′-xanthen]-2′-yl)benzonitrile] | 1.6 | 9.2
CN(C)c1ccc(-c2cc3c(cn2)Oc2ccc(-c4cccnc4F)cc2[C@@]32COC(N)=N2)cc1 [Example 567, (5S)-3-(4-(dimethylamino)phenyl)-7-(2-fluoro-3-pyridinyl)spiro[chromeno[2,3-c]pyridine-5,4′-[1,3]oxazol]-2′-amine] | 4.6 | 74.6
COc1ccc(-c2cc3c(cn2)Oc2ccc(-c4cccnc4F)cc2[C@@]32COC(N)=N2)cc1 [Example 568, (5S)-7-(2-fluoro-3-pyridinyl)-3-(4-methoxyphenyl)spiro[chromeno[2,3-c]pyridine-5,4′-[1,3]oxazol]-2′-amine] | 2.3 | 29.5
NC1=N[C@@]2(CO1)c1cc(-c3cccnc3F)ccc1Oc1cnc(-c3cncc(F)c3)cc12 [Example 569, (5S)-7-(2-fluoro-3-pyridinyl)-3-(5-fluoro-3-pyridinyl)spiro[chromeno[2,3-c]pyridine-5,4′-[1,3]oxazol]-2′-amine] | 1.2 | 18.2
COc1ncc(-c2cc3c(cn2)Oc2ccc(-c4cccnc4F)cc2[C@@]32COC(N)=N2)cc1F [Example 570, (5S)-3-(5-fluoro-6-methoxy-3-pyridinyl)-7-(2-fluoro-3-pyridinyl)spiro[chromeno[2,3-c]pyridine-5,4′-[1,3]oxazol]-2′-amine] | 2 | 31
NC1=N[C@@]2(CO1)c1cc(-c3cccnc3F)ccc1Oc1cnc(-c3cncnc3)cc12 [Example 571, (5S)-7-(2-fluoro-3-pyridinyl)-3-(5-pyrimidinyl)spiro[chromeno[2,3-c]pyridine-5,4′-[1,3]oxazol]-2′-amine] | 6.6 | 110
NC1=N[C@@]2(CO1)c1cc(-c3cccnc3F)ccc1Oc1cnc(-c3ccncc3F)cc12 [Example 572, (5S)-7-(2-fluoro-3-pyridinyl)-3-(3-fluoro-4-pyridinyl)spiro[chromeno[2,3-c]pyridine-5,4′-[1,3]oxazol]-2′-amine] | 11.8 | 148
NC1=N[C@@]2(CO1)c1cc(-c3ccncc3F)ccc1Oc1cnc(-c3ccnc(F)c3)cc12 [Example 573, (5S)-3-(2-fluoro-4-pyridinyl)-7-(3-fluoro-4-pyridinyl)spiro[chromeno[2,3-c]pyridine-5,4′-[1,3]oxazol]-2′-amine] | 70.8 | 801
